# In paper PMC5218480 (PLoS ONE, 2017):
# System: MV-4-11 cells
# Assay: Gene expression microarray analysis (Affymetrix PrimeView) and GSEA
# Format: cell-based, human
# Design: RFU PODN (11730768_x_at) / Fold change /veh PODN (11730768_x_at) / RFU LINC00158 (11744669_a_at) / Fold change /veh LINC00158 (11744669_a_at) / RFU DUSP10 (11751237_a_at) / Fold change /veh DUSP10 (11751237_a_at) / RFU ID3 (11757404_x_at) / Fold change /veh ID3 (11757404_x_at) / RFU PLEKHG5 (11737974_s_at) / Fold change /veh PLEKHG5 (11737974_s_at) / RFU LRRC4B (11730491_at) / Fold change /veh LRRC4B (11730491_at) / RFU GIMAP4 (11747438_a_at) / Fold change /veh GIMAP4 (11747438_a_at) / RFU KRT8 (11758183_x_at) / Fold change /veh KRT8 (11758183_x_at) / RFU CNN1 (11734310_a_at) / Fold change /veh CNN1 (11734310_a_at) / RFU VPS37D (11726825_at) / Fold change /veh VPS37D (11726825_at) / RFU C10orf10 (11716522_x_at) / Fold change /veh C10orf10 (11716522_x_at) / RFU KIR2DL2 /// KIR2DL4 /// KIR2DL5A /// KIR2DL5B /// KIR2DS1 /// KIR2DS2 /// KIR2DS3 /// KIR2DS4 /// KIR3DL3 /// KIR3DL3 /// KIR3DS1 (11738374_at) / Fold change /veh KIR2DL2 /// KIR2DL4 /// KIR2DL5A /// KIR2DL5B /// KIR2DS1 /// KIR2DS2 /// KIR2DS3 /// KIR2DS4 /// KIR3DL3 /// KIR3DL3 /// KIR3DS1 (11738374_at) / RFU C1QL1 (11718748_at) / Fold change /veh C1QL1 (11718748_at) / RFU TMPRSS4 (11747572_a_at) / Fold change /veh TMPRSS4 (11747572_a_at) / RFU HAMP (11756126_x_at) / Fold change /veh HAMP (11756126_x_at) / RFU RNFT2 (11725882_a_at) / Fold change /veh RNFT2 (11725882_a_at) / RFU NR4A2 (11747474_a_at) / Fold change /veh NR4A2 (11747474_a_at) / RFU ABCC12 (11746883_a_at) / Fold change /veh ABCC12 (11746883_a_at) / RFU TMEM136 (11760407_x_at) / Fold change /veh TMEM136 (11760407_x_at) / RFU CLDN22 /// WWC2 (11732394_at) / Fold change /veh CLDN22 /// WWC2 (11732394_at) / RFU HLA-DPB1 (11760878_x_at) / Fold change /veh HLA-DPB1 (11760878_x_at) / RFU SPINT1 (11716480_a_at) / Fold change /veh SPINT1 (11716480_a_at) / RFU GAP43 (11754022_s_at) / Fold change /veh GAP43 (11754022_s_at) / RFU A4GNT (11735810_at) / Fold change /veh A4GNT (11735810_at) / RFU PRB3 (11715151_x_at) / Fold change /veh PRB3 (11715151_x_at) / RFU TUBB4B (11761932_at) / Fold change /veh TUBB4B (11761932_at) / RFU CAPN14 (11732068_a_at) / Fold change /veh CAPN14 (11732068_a_at) / RFU TMCC2 (11721928_a_at) / Fold change /veh TMCC2 (11721928_a_at) / RFU IRGQ (11745062_a_at) / Fold change /veh IRGQ (11745062_a_at) / RFU FAM174B (11720279_a_at) / Fold change /veh FAM174B (11720279_a_at) / RFU TMPRSS4 (11748680_a_at) / Fold change /veh TMPRSS4 (11748680_a_at) / RFU FAM212B (11763350_a_at) / Fold change /veh FAM212B (11763350_a_at) / RFU PLEKHG5 (11743358_a_at) / Fold change /veh PLEKHG5 (11743358_a_at) / RFU ZSCAN30 (11745921_a_at) / Fold change /veh ZSCAN30 (11745921_a_at) / RFU CMKLR1 (11741424_a_at) / Fold change /veh CMKLR1 (11741424_a_at) / RFU LOC101060620 /// MAPK8IP1 (11723275_at) / Fold change /veh LOC101060620 /// MAPK8IP1 (11723275_at) / RFU SPTSSB (11747773_x_at) / Fold change /veh SPTSSB (11747773_x_at) / RFU PRSS12 (11739890_at) / Fold change /veh PRSS12 (11739890_at) / RFU BIN1 (11741810_x_at) / Fold change /veh BIN1 (11741810_x_at) / RFU WNT11 (11732464_a_at) / Fold change /veh WNT11 (11732464_a_at) / RFU C10orf10 (11716521_a_at) / Fold change /veh C10orf10 (11716521_a_at) / RFU C5orf56 (11738089_at) / Fold change /veh C5orf56 (11738089_at) / RFU CYB561 (11721691_x_at) / Fold change /veh CYB561 (11721691_x_at) / RFU ANKRD19P (11752326_a_at) / Fold change /veh ANKRD19P (11752326_a_at) / RFU OR2T12 /// OR2T33 /// OR2T8 (11738714_s_at) / Fold change /veh OR2T12 /// OR2T33 /// OR2T8 (11738714_s_at) / RFU VCAN (11748164_a_at) / Fold change /veh VCAN (11748164_a_at) / RFU JSRP1 (11732532_at) / Fold change /veh JSRP1 (11732532_at) / RFU KRTAP10-11 (11738290_x_at) / Fold change /veh KRTAP10-11 (11738290_x_at) / RFU MYO3A (11730013_a_at) / Fold change /veh MYO3A (11730013_a_at) / RFU EBF3 (11725865_a_at) / Fold change /veh EBF3 (11725865_a_at) / RFU CAMK2N1 (11719241_x_at) / Fold change /veh CAMK2N1 (11719241_x_at) / RFU C5orf56 (11738088_a_at) / Fold change /veh C5orf56 (11738088_a_at) / RFU OLFML3 (11715873_a_at) / Fold change /veh OLFML3 (11715873_a_at) / RFU LOC100653217 /// NTM (11731650_a_at) / Fold change /veh LOC100653217 /// NTM (11731650_a_at) / RFU MAPK11 (11762145_a_at) / Fold change /veh MAPK11 (11762145_a_at) / RFU FIZ1 (11724087_x_at) / Fold change /veh FIZ1 (11724087_x_at) / RFU OASL (11726364_x_at) / Fold change /veh OASL (11726364_x_at) / RFU SOX15 (11748057_x_at) / Fold change /veh SOX15 (11748057_x_at) / RFU CD79A (11719716_a_at) / Fold change /veh CD79A (11719716_a_at) / RFU HIST1H1D (11736915_at) / Fold change /veh HIST1H1D (11736915_at) / RFU CASKIN2 (11723855_a_at) / Fold change /veh CASKIN2 (11723855_a_at) / RFU LOC730098 (11760151_x_at) / Fold change /veh LOC730098 (11760151_x_at) / RFU OR4N2 (11742367_at) / Fold change /veh OR4N2 (11742367_at) / RFU PRRT2 (11749266_a_at) / Fold change /veh PRRT2 (11749266_a_at) / RFU SNX32 (11753110_a_at) / Fold change /veh SNX32 (11753110_a_at) / RFU CDHR5 (11726645_a_at) / Fold change /veh CDHR5 (11726645_a_at) / RFU RCAN1 (11760418_a_at) / Fold change /veh RCAN1 (11760418_a_at) / RFU FAM167A (11723789_a_at) / Fold change /veh FAM167A (11723789_a_at) / RFU FAM26E (11764081_at) / Fold change /veh FAM26E (11764081_at) / RFU ISYNA1 (11749810_s_at) / Fold change /veh ISYNA1 (11749810_s_at) / RFU ACY1 (11761880_at) / Fold change /veh ACY1 (11761880_at) / RFU 11764098_at / Fold change /veh 11764098_at / RFU SAMD14 (11745864_x_at) / Fold change /veh SAMD14 (11745864_x_at) / RFU NPB (11741838_a_at) / Fold change /veh NPB (11741838_a_at) / RFU TMPRSS6 (11731388_a_at) / Fold change /veh TMPRSS6 (11731388_a_at) / RFU KRTAP10-2 (11738614_at) / Fold change /veh KRTAP10-2 (11738614_at) / RFU ARHGAP8 /// PRR5-ARHGAP8 (11727945_x_at) / Fold change /veh ARHGAP8 /// PRR5-ARHGAP8 (11727945_x_at) / RFU KRTAP5-7 /// NADSYN1 (11734609_at) / Fold change /veh KRTAP5-7 /// NADSYN1 (11734609_at) / RFU RASL12 (11751679_a_at) / Fold change /veh RASL12 (11751679_a_at) / RFU CDKN2B (11736163_a_at) / Fold change /veh CDKN2B (11736163_a_at) / RFU PRF1 (11729649_at) / Fold change /veh PRF1 (11729649_at) / RFU, ZNF638 /// ZNF638-IT1 / Fold change vs veh, ZNF638 /// ZNF638-IT1 / RFU, PANK3 / Fold change vs veh, PANK3 / RFU, SH3YL1 / Fold change vs veh, SH3YL1 / RFU, ZEB2 / Fold change vs veh, ZEB2 / RFU, NRIP1 / Fold change vs veh, NRIP1 / RFU, PTTG1IP / Fold change vs veh, PTTG1IP / RFU, CAPN2 / Fold change vs veh, CAPN2 / RFU, MED14 / Fold change vs veh, MED14 / RFU, SNORA58 / Fold change vs veh, SNORA58 / RFU, C1orf63 / Fold change vs veh, C1orf63 / RFU, LRRFIP1 / Fold change vs veh, LRRFIP1 / RFU, NDUFAF7 / Fold change vs veh, NDUFAF7 / RFU, SLC12A2 / Fold change vs veh, SLC12A2 / RFU, IBTK / Fold change vs veh, IBTK / RFU, ESF1 / Fold change vs veh, ESF1 / Fold change vs veh, TMEM50B / RFU, TAOK1 / Fold change vs veh, TAOK1 / RFU, ACBD3 / Fold change vs veh, ACBD3 / RFU, TMA16 / Fold change vs veh, TMA16 / RFU, RWDD3 / Fold change vs veh, RWDD3 / RFU, BCAT1 / Fold change vs veh, BCAT1 / RFU, EDEM3 / Fold change vs veh, EDEM3 / RFU, TMEM33 / Fold change vs veh, TMEM33 / RFU, WDR75 / Fold change vs veh, WDR75 / RFU, AHCTF1 / Fold change vs veh, AHCTF1 / RFU, TFRC / Fold change vs veh, TFRC / RFU, ZDHHC17 / Fold change vs veh, ZDHHC17 / RFU, NOM1 / Fold change vs veh, NOM1 / RFU, ARL8B / Fold change vs veh, ARL8B / RFU, ZBTB11 / Fold change vs veh, ZBTB11 / RFU, TAMM41 / Fold change vs veh, TAMM41 / RFU, KIAA1704 /// LOC100996395 / Fold change vs veh, KIAA1704 /// LOC100996395 / RFU, ING1 / Fold change vs veh, ING1 / RFU, TRMT61B / Fold change vs veh, TRMT61B / RFU, FUBP3 / Fold change vs veh, FUBP3 / RFU, TP53 / Fold change vs veh, TP53 / RFU, TNKS2 / Fold change vs veh, TNKS2 / RFU, ZFP14 / Fold change vs veh, ZFP14 / RFU, ACTR2 / Fold change vs veh, ACTR2 / RFU, PPP3R1 / Fold change vs veh, PPP3R1 / RFU, PIK3R1 / Fold change vs veh, PIK3R1 / RFU, HNRNPA1 / Fold change vs veh, HNRNPA1 / RFU, RNF170 / Fold change vs veh, RNF170 / RFU, ZNF28 / Fold change vs veh, ZNF28 / RFU, RNGTT / Fold change vs veh, RNGTT / RFU, OGT / Fold change vs veh, OGT / RFU, BRD1 / Fold change vs veh, BRD1 / RFU, MARS / Fold change vs veh, MARS / RFU, ZNF655 / Fold change vs veh, ZNF655 / RFU, FAHD1 / Fold change vs veh, FAHD1 / RFU, BDP1 / Fold change vs veh, BDP1 / RFU, LRRCC1 / Fold change vs veh, LRRCC1 / RFU, ARID1A / Fold change vs veh, ARID1A / RFU, ZNF146 / Fold change vs veh, ZNF146 / RFU, ZNF330 / Fold change vs veh, ZNF330 / RFU, GPN3 / Fold change vs veh, GPN3 / RFU, C9orf123 / Fold change vs veh, C9orf123 / RFU, N4BP2L2 / Fold change vs veh, N4BP2L2 / RFU, ARFIP1 / Fold change vs veh, ARFIP1 / RFU, FAM179B / Fold change vs veh, FAM179B / RFU, BCL10 / Fold change vs veh, BCL10 / RFU, UHRF1BP1L / Fold change vs veh, UHRF1BP1L / RFU, BET1 / Fold change vs veh, BET1 / RFU, CNOT2 / Fold change vs veh, CNOT2 / RFU, ZNF268 / Fold change vs veh, ZNF268 / Fold change vs veh, ZNF507 / RFU, DGCR2 / Fold change vs veh, DGCR2 / RFU, WDSUB1 / Fold change vs veh, WDSUB1 / Fold change vs veh, HSP90B1 /// MIR3652 / RFU, ADSS / Fold change vs veh, ADSS / RFU, GK / Fold change vs veh, GK / RFU, ZNF148 / Fold change vs veh, ZNF148 / RFU, TAF9 / Fold change vs veh, TAF9 / RFU, SLC1A5 / Fold change vs veh, SLC1A5 / RFU, SLMO2 / Fold change vs veh, SLMO2 / RFU, ABCC4 / Fold change vs veh, ABCC4 / RFU, LOC101060439 /// RAP1B / Fold change vs veh, LOC101060439 /// RAP1B / RFU, RFX7 / Fold change vs veh, RFX7 / RFU, GTPBP10 / Fold change vs veh, GTPBP10 / RFU, CNEP1R1 / Fold change vs veh, CNEP1R1 / RFU, BIVM-ERCC5 /// ERCC5 / Fold change vs veh, BIVM-ERCC5 /// ERCC5 / RFU, ILF3 / Fold change vs veh, ILF3 / RFU 11762660_at / Fold change /veh 11762660_at / RFU VCAN (11757783_s_at) / Fold change /veh VCAN (11757783_s_at) / RFU DDX43 (11728927_at) / Fold change /veh DDX43 (11728927_at) / RFU KRT8 (11758188_x_at) / Fold change /veh KRT8 (11758188_x_at) / RFU NKD1 (11759106_at) / Fold change /veh NKD1 (11759106_at) / RFU SRD5A1 (11742802_a_at) / Fold change /veh SRD5A1 (11742802_a_at) / RFU TPSAB1 /// TPSB2 (11721975_s_at) / Fold change /veh TPSAB1 /// TPSB2 (11721975_s_at) / RFU GSTM3 (11746129_a_at) / Fold change /veh GSTM3 (11746129_a_at) / RFU IL23R (11737362_x_at) / Fold change /veh IL23R (11737362_x_at) / RFU TMEM51 (11727254_a_at) / Fold change /veh TMEM51 (11727254_a_at) / RFU PIWIL2 (11732686_x_at) / Fold change /veh PIWIL2 (11732686_x_at) / RFU ORM1 (11744905_x_at) / Fold change /veh ORM1 (11744905_x_at) / RFU CCDC152 (11743942_at) / Fold change /veh CCDC152 (11743942_at) / RFU ECM1 (11717891_a_at) / Fold change /veh ECM1 (11717891_a_at) / RFU IL23R (11748794_a_at) / Fold change /veh IL23R (11748794_a_at) / RFU TNFAIP8L3 (11732012_x_at) / Fold change /veh TNFAIP8L3 (11732012_x_at) / RFU MBOAT4 (11741988_at) / Fold change /veh MBOAT4 (11741988_at) / RFU 11764193_at / Fold change /veh 11764193_at / RFU TMEM53 (11763286_at) / Fold change /veh TMEM53 (11763286_at) / RFU MAGEB2 (11727129_at) / Fold change /veh MAGEB2 (11727129_at) / RFU TMEM200A (11744735_a_at) / Fold change /veh TMEM200A (11744735_a_at) / RFU CCDC152 (11751479_a_at) / Fold change /veh CCDC152 (11751479_a_at) / RFU FAM211A (11726209_a_at) / Fold change /veh FAM211A (11726209_a_at) / RFU RGS16 (11746705_a_at) / Fold change /veh RGS16 (11746705_a_at) / RFU VCAN (11755009_s_at) / Fold change /veh VCAN (11755009_s_at) / RFU RHOB (11743442_s_at) / Fold change /veh RHOB (11743442_s_at) / RFU RGS16 (11720943_a_at) / Fold change /veh RGS16 (11720943_a_at) / RFU RGS16 (11720944_at) / Fold change /veh RGS16 (11720944_at) / RFU, VPS4B / Fold change vs veh, VPS4B / RFU, CREB1 / Fold change vs veh, CREB1 / RFU, DNAJC13 / Fold change vs veh, DNAJC13 / RFU, GNAQ / Fold change vs veh, GNAQ / RFU, CDK5R1 / Fold change vs veh, CDK5R1 / RFU, ZRANB3 / Fold change vs veh, ZRANB3 / RFU, CUL4A / Fold change vs veh, CUL4A / RFU, CCNY / Fold change vs veh, CCNY / RFU, UFL1 / Fold change vs veh, UFL1 / RFU, COG3 / Fold change vs veh, COG3 / RFU, DIAPH2 / Fold change vs veh, DIAPH2 / RFU, SKA2 / Fold change vs veh, SKA2 / RFU, AFF3 / Fold change vs veh, AFF3 / RFU, LMF1 / Fold change vs veh, LMF1 / RFU, IPO11 / Fold change vs veh, IPO11 / RFU, DFFB / Fold change vs veh, DFFB / RFU, FOXP1 / Fold change vs veh, FOXP1 / RFU, CARD8 / Fold change vs veh, CARD8 / RFU, STRN3 / Fold change vs veh, STRN3 / RFU, ADK / Fold change vs veh, ADK / RFU, RASSF2 / Fold change vs veh, RASSF2 / RFU, WIPF1 / Fold change vs veh, WIPF1 / RFU, LARP1B / Fold change vs veh, LARP1B / RFU, RASA1 / Fold change vs veh, RASA1 / RFU, RB1 / Fold change vs veh, RB1 / RFU, PPFIA1 / Fold change vs veh, PPFIA1 / RFU, MAT2A / Fold change vs veh, MAT2A / RFU, CCT5 / Fold change vs veh, CCT5 / RFU, WDR92 / Fold change vs veh, WDR92 / RFU, CUX1 / Fold change vs veh, CUX1 / RFU, TTC7A / Fold change vs veh, TTC7A / RFU, TMEM135 / Fold change vs veh, TMEM135 / RFU, DEPTOR / Fold change vs veh, DEPTOR / RFU, CPM / Fold change vs veh, CPM / RFU, DNAJB6 / Fold change vs veh, DNAJB6 / RFU, CACNA2D3 / Fold change vs veh, CACNA2D3 / RFU, DTX4 / Fold change vs veh, DTX4 / RFU, TFCP2 / Fold change vs veh, TFCP2 / RFU, GMCL1 /// GMCL1P1 / Fold change vs veh, GMCL1 /// GMCL1P1 / RFU, AEBP2 / Fold change vs veh, AEBP2 / RFU, SNHG1 /// SNORD22 /// SNORD25 /// SNORD26 /// SNORD27 /// SNORD28 /// SNORD29 /// SNORD31 / Fold change vs veh, SNHG1 /// SNORD22 /// SNORD25 /// SNORD26 /// SNORD27 /// SNORD28 /// SNORD29 /// SNORD31 / Fold change (Aza/veh), C12orf56 (ProbeSet 11735607_a_at) / Fold change (ACY-1035/veh), C12orf56 (ProbeSet 11735607_a_at) / Fold change (Aza/veh), FGFR1OP (ProbeSet 11751329_s_at) / Fold change (ACY-1035/veh), FGFR1OP (ProbeSet 11751329_s_at) / Fold change (Aza/veh), VPS36 (ProbeSet 11739960_a_at) / Fold change (ACY-1035/veh), VPS36 (ProbeSet 11739960_a_at) / RFU SYPL1 (11715823_x_at) / Fold change /veh SYPL1 (11715823_x_at) / RFU IGFBP7 (11715501_s_at) / Fold change /veh IGFBP7 (11715501_s_at) / RFU REEP3 (11722064_at) / Fold change /veh REEP3 (11722064_at) / RFU IGLL1 (11728026_x_at) / Fold change /veh IGLL1 (11728026_x_at): dose or concentration left out as unconfirmed
# Settings: MV-4-11 cells, 48 hours
compound,measurement,value
Nc1ncn([C@@H]2O[C@H](CO)[C@@H](O)[C@H]2O)c(=O)n1 [azacitidine],Fold change /veh SYPL1 (11715823_x_at),0.82
